Several values for one entry are separate records, joined by “and”; a condition that tells them apart may be missing. Identical values can stand only once. Like-named read-outs stand apart in the source and are kept apart here.
Key:
leaf-discs [1] = experiment: DMSO spray and dips, tolerance by leaf-discs
Text: There was no surface sterilization pretreatment; (2) discs were placed on GB+GBV agar plates; (3) disc were sprayed using a Preval Atomizer with 20% DMSO or water (control); (4) some plates were allowed to dry overnight in the hood. […] Plates were covered with two fabric screens. […] Plates were covered with one fabric screen.
There was no surface sterilization pretreatment; (2) discs were dipped several times in 20% DMSO, 8% DMSO or water (control). Discs were allowed to dry for a short time in the hood. […] Plates were covered with two fabric screens. […] Plates were covered with one fabric screen.

Brassica leaf-discs = experiment: Phytohormone treatment, calli and root production from Brassica leaf-discs
Protocol: (§1) • 1. Leaf-discs (2.7-cm in diameter) were cut from Brassica leaves (Leaf #2, leaf #3) or eggplant leaves (see above). • 2. […] The discs were placed in Incubator B (higher humidity, higher light). Plates were covered with two fabric screens. • 4.

eggplant leaf-discs = experiment: Phytohormone treatment, root production from eggplant leaf-discs
Protocol: as §1

leaf-discs [2] = system: leaf-discs
Protocol: Protocol 1: Ethanol and sodium hypochlorite: The method comprised the following steps: (1) whole leaves (Leaf 2 or leaf 3) were excised from plants; (2) leaves were dipped in 500 ml of 70% EtOH for 10-20 sec; (3) leaves were immersed in 500 ml of 0.01%, 0.06% or 0.24% NaClO for varying periods of time (1-20 min) with and without agitation of the liquid; (4) leaves were washed three to four times in distilled water (500-ml) each; (5) leaves were patted dry with paper towels; and (6) discs are cut from these pretreated leaves.
Protocol 2: Ethanol and sodium hypochlorite: The method comprised the following steps: (1) leaf-discs (2.5-cm in diameter) were cut from leaf 2 (11.5-cm long) or leaf 3 from a 6-wk-old plants; (2) Discs were dipped in 500 ml of 70% EtOH for 10-20 sec; (3) Discs were immersed in 500 ml of 0.01%, 0.06% or 0.24% NaClO for varying periods of time (1-20 min) with and without agitation of the liquid; (4) Discs were washed three to four times in distilled water (500-ml) each; (5) Discs were patted dry with paper towels; (6) Discs were placed on GB+GBV agar plates, covered with a mesh lid, sealed with parafilm, and incubated agar side up; (7) In some experiments, GB-GBV plates were initially incubated agar side down to encourage root growth into the media. […]

plant-derived fungi [3] = experiment: Surface sterilization of leaves/leaf-discs with EtOH and sodium hypochlorite, control of fungi
Text: Plates were covered with two fabric screens. […] Plates were covered with one fabric screen.

plant-derived fungi [4] = experiment: DMSO/miconazole dips, control of fungi on leaf-discs; details: dipping of leaf-discs in 8% DMSO and 5 μg/ml miconazole
Protocol: There was no surface sterilization pretreatment; (2) discs were dipped several times in 20% DMSO, 8% DMSO or water (control). Discs were allowed to dry for a short time in the hood. […] Plates were covered with two fabric screens. […] Plates were covered with one fabric screen. In most experiments both incubators were used; […].

C[S+](C)[O-] [DMSO, dimethyl sulfoxide]
damage to leaf-discs (leaf-discs [1]; dipping into 8% DMSO): does not cause leaf-disc damage | damage to leaf-discs (leaf-discs [1]; dipping into 20% DMSO): does not cause leaf-disc damage | damage to leaf-discs (leaf-discs [1]; direct spraying with 20% DMSO, two types of atomizers): causes extensive damage

O=C(O)Cc1cccc2ccccc12 [NAA, Napthalene Acetic Acid]
Roots first detected (Brassica leaf-discs; 0.1 mg/L NAA): 5 days | % plates with calli (Brassica leaf-discs; 1 mg/L NAA): 67% | roots per site (Brassica leaf-discs; 1 mg/L NAA, day 4): 1-3 roots per site and 1 roots per site and 1-2 roots per site | roots per site (Brassica leaf-discs; 1 mg/L NAA, day 5): 1-3 roots per site and 1-2 roots per site | % plates with calli (Brassica leaf-discs; 10 mg/L NAA): 100% | Calli first day detected (Brassica leaf-discs; 10 mg/L NAA in GB + GBV, Incubator B): 3 days | number of root sites per disc (Brassica leaf-discs; 10 mg/L NAA, day 4, discs 142B-1 to -3): 1 sites | roots per site (Brassica leaf-discs; 10 mg/L NAA, day 5): 2 per site and 1-3multiple per site and 1-3 per site | plates with roots (Brassica leaf-discs; NAA 0.1 mg/L, day 5): ⅔ | plates with roots (Brassica leaf-discs; NAA 1 mg/L, by day 4): all three | plates with roots (Brassica leaf-discs; NAA 10 mg/L, by day 4): all three | root sites and roots per site detected (Brassica leaf-discs; NAA 0.1, 1.0 and 10 mg/L): Multiple root sites and multiple roots per site | effect on production of roots from Brassica leaf-discs (Brassica leaf-discs; NAA 0.1, 1.0 and 10 mg/L in GB+GBV): enhanced and accelerated the production of roots | production of roots from eggplant leaf-discs (eggplant leaf-discs; NAA 0.1, 1.0 and 10 mg/L, within 5 d): did not produce of roots

[Na+].[O-]Cl [NaClO, sodium hypochlorite]
damage to intact leaves or leaf-discs (leaf-discs [2]): No damage was evident | time for which appearance of fungi is prevented (plant-derived fungi [3]; prewashing intact leaves with 70% EtOH and 0.24% NaClO, then cutting discs): 19 days | slowing of first appearance of fungi on agar plates (plant-derived fungi [3]; prewashing leaves or leaf-discs with 70% EtOH and 0.01% NaClO): 1 to 2 days | slowing of first appearance of fungi on agar plates (plant-derived fungi [3]; prewashing with 70% EtOH and 0.06% NaClO): 1 to 2 days

Clc1ccc(COC(Cn2ccnc2)c2ccc(Cl)cc2Cl)c(Cl)c1 (stereo not drawn) [miconazole]
slowing of growth of plant-derived fungi (plant-derived fungi [4]): 10 to 12 days

Indole butyric acid [IBA]
Calli first day detected (Brassica leaf-discs): 4 days and 5 days | Roots first detected (Brassica leaf-discs): 5 days | time in which leaf-discs produced roots (Brassica leaf-discs): 5 to 6 days | detection of roots (Brassica leaf-discs; 1.0 mg/L IBA): occasionally detected | number of root sites per disc (Brassica leaf-discs; 2.5 mg/L IBA, day 5): 1 site | roots per site (Brassica leaf-discs; 2.5 mg/L IBA, day 5): 1 root | % plates with calli (Brassica leaf-discs; 5 mg/L IBA): 67% and 100% | Roots first detected (Brassica leaf-discs; 5 mg/L IBA): 5 days | number of root sites per disc (Brassica leaf-discs; 5 mg/L IBA, day 5): 2 sites | roots per site (Brassica leaf-discs; 5 mg/L IBA, day 5): 3-4 roots per site | % plates with calli (Brassica leaf-discs; 7.5 mg/L IBA): 100% | Roots first detected (Brassica leaf-discs; 7.5 mg/L IBA): 6 days | % plates with calli (Brassica leaf-discs; 10 mg/L IBA): 100% | Roots first detected (Brassica leaf-discs; 10 mg/L IBA): 5 days | roots per site (Brassica leaf-discs; 10 mg/L IBA, day 5): 1-4 roots per site and 1 root per site roots per site | number of root sites per disc (Brassica leaf-discs; 10 mg/L IBA, day 6): 132B-2 10 sites and 132B-3 15 sites | roots total per disc (Brassica leaf-discs; 10 mg/L IBA, day 6, disc 132B-1): > 6d 132B-1 over 41 roots total | % plates with calli (Brassica leaf-discs; […]): 100% | discs that formed roots (eggplant leaf-discs): one | time after which roots formed (eggplant leaf-discs): 10 days

— US12245576B2, “Method for genetic manipulation of sap-feeding insects” (The Regents of the University of California, priority 2018, dated 2025)
